pEC50: −log10 of the molar value.
Legend:
RORγt = molecular target: T1, RORγt (Homo sapiens, UniProt P51449); assay: RORγt cellular reporter gene detection assay; format: cell-based; settings: 24 hrs; for pEC50: HEK 293 cells co-transfected with pFN26A-RORγt-LBD and pG14.35, in presence of antagonist Ursolic acid, top concentration 50 μM; for Cellular Reporter Assay Amax: upper activation limit, HEK 293 cells, in presence of antagonist Ursolic acid;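 as to Cellular Reporter Assay Amax: Ursolic Acid added as 5 µL of 20 µM medium per well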
T1 construct: The plasmid of pFN26A-RORγt-LBD and pG14.35 (Promega, Cat. No. E1370) were co-transfected into HEK 293 cells; expressed in transfected cells; host or cells: HEK 293 cells (Cat. No. GNHu18)
T1 sequence (P51449 269-508 limits assumed): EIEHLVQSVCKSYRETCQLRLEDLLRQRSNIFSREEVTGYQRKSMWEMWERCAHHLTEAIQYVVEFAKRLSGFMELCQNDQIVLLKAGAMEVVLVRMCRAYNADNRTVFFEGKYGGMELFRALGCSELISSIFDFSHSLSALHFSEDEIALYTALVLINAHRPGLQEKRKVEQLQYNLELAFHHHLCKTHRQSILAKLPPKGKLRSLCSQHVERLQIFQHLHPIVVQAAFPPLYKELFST
How it was run: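 HEK293 cells co-transfected with RORγt-LBD and luciferase reporter plasmids, treated with Ursolic acid antagonist plus compound in 4-fold dilutions from 50 μM for 24 h at 37° C. Firefly and Renilla luminescence read; EC50 and Amax from four-parameter fit.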

RORγt-LBD = molecular target: T2, RORγt-LBD (Homo sapiens, UniProt P51449); assay: Time-resolved fluorescence resonance energy-transfer assay (TR-FRET), co-activator peptide recruitment; format: biochemical; design: TR-FRET Biochemical Amax: unit not given here; settings: for pEC50: His-RORγt-LBD 30 nM, SRC peptide 500 nM, agonistic activity, averages of one or more measurements, read-out: TR-FRET Biochemical EC50/; for TR-FRET Biochemical Amax: upper activation limit, His-RORγt-LBD, SRC peptide
T2 sequence (P51449 269-508 limits assumed): T1 sequence (P51449 269-508 limits assumed)
How it was run: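 Eu-anti-His-labelled His-RORγt-LBD (30 nM final) recruits biotin-SRC co-activator peptide (500 nM final), detected via APC-streptavidin (5 nM) and Eu-anti-His (0.25 nM). Buffer was Tris/KCl/EDTA at pH 7.0 with 0.01% Triton X-100 and 1 mM DTT. Compounds were tested at 7 points in 5-fold dilutions. Plates were incubated overnight at 4 °C then 1 h at RT, and agonism was read as the 665/615 nm ratio.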

| SMILES | pEC50 (RORγt) | Cellular Reporter Assay Amax (RORγt) | pEC50 (RORγt-LBD) | TR-FRET Biochemical Amax (RORγt-LBD) |
| --- | --- | --- | --- | --- |
| CC(C)(C)OC(=O)C(C)(C)N1CCN2c3ccc(-c4cc(F)cc(OC(F)F)c4)cc3N(S(=O)(=O)c3cccc(C(F)(F)F)c3)C[C@@H]2C1 [Example 51, tert-butyl (S)-2-(8-(3-(difluoromethoxy)-5-fluorophenyl)-6-((3-(trifluoromethyl)phenyl)sulfonyl)-1,2,4,4a,5,6-hexahydro-3H-pyrazino[1,2-a]quinoxalin-3-yl)-2-methylpropanoate] | 5.40 | 1.5 | 7.31 | 0.77 |
| CC(C)(C(=O)O)N1CCN2c3ccc(-c4cc(F)cc(OC(F)F)c4)cc3N(S(=O)(=O)c3cccc(C(F)(F)F)c3)C[C@@H]2C1 [Example 54, (S)-2-(8-(3-(difluoromethoxy)-5-fluorophenyl)-6-((3-(trifluoromethyl)phenyl)sulfonyl)-1,2,4,4a,5,6-hexahydro-3H-pyrazino[1,2-a]quinoxalin-3-yl)-2-methylpropanoic acid] | 6.53 | 3.9 | 7.70 | 0.72 |
| CCOC(=O)C(=O)N1CCN2c3ccc(/C=C/c4c(Cl)cccc4C(F)(F)F)cc3N(S(=O)(=O)c3cccc(C(F)(F)F)c3)C[C@@H]2C1 [Example 58, ethyl (S,E)-2-(8-(2-chloro-6-(trifluoromethyl)styryl)-6-((3-(trifluoromethyl)phenyl)sulfonyl)-1,2,4,4a,5,6-hexahydro-3H-pyrazino[1,2-a]quinoxalin-3-yl)-2-oxoacetate] | 5.86 | 4.0 | 7.71 | 0.79 |
| NC(=O)CN1CCN2c3ccc(/C=C/c4c(Cl)cccc4C(F)(F)F)cc3N(S(=O)(=O)c3cccc(C(F)(F)F)c3)C[C@@H]2C1 [Example 59, (S,E)-2-(8-(2-chloro-6-(trifluoromethyl)styryl)-6-((3-(trifluoromethyl)phenyl)sulfonyl)-1,2,4,4a,5,6-hexahydro-3H-pyrazino[1,2-a]quinoxalin-3-yl)acetamide] | 6.22 | 3.5 | 7.00 | 1.10 |
| NC(=O)N1CCN2c3ccc(/C=C/c4c(Cl)cccc4C(F)(F)F)cc3N(S(=O)(=O)c3cccc(C(F)(F)F)c3)C[C@@H]2C1 [Example 60, (S,E)-8-(2-chloro-6-(trifluoromethyl)styryl)-6-((3-(trifluoromethyl)phenyl)sulfonyl)-1,2,4,4a,5,6-hexahydro-3H-pyrazino[1,2-a]quinoxalin-3-carboxamide] | 6.60 | 2.8 | 7.21 | 0.98 |
| NC(=O)N1CCN2c3ccc(-c4cc(F)cc(OC(F)F)c4)cc3N(S(=O)(=O)c3cccc(C(F)(F)F)c3)C[C@@H]2C1 [Example 61, (S)-8-(3-(difluoromethoxy)-5-fluorophenyl)-6-((3-(trifluoro-methyl)phenyl)sulfonyl)-1,2,4,4a,5,6-hexahydro-3H-pyra-zino[1,2-a]quinoxaline-3-car-boxamide] | 6.33 | 3.0 | 7.07 | 0.69 |
| NC(=S)N1CCN2c3ccc(-c4cc(F)cc(OC(F)F)c4)cc3N(S(=O)(=O)c3cccc(C(F)(F)F)c3)C[C@@H]2C1 [Example 64, (S)-8-(3-(difluoromethoxy)-5-fluorophenyl)-6-((3-(trifluoro-methyl)phenyl)sulfonyl)-1,2,4,4a,5,6-hexahydro-3H-pyrazino [1,2-a]quinoxaline-3-carbo-thioamide] | 6.25 | 2.7 | 7.32 | 0.80 |

Next, values leading:

| pEC50 (RORγt) | Cellular Reporter Assay Amax (RORγt) | pEC50 (RORγt-LBD) | TR-FRET Biochemical Amax (RORγt-LBD) | SMILES |
| --- | --- | --- | --- | --- |
| ≤ 4.30 | – | 6.74 | 0.50 | CC(C)(C)OC(=O)C(C)(C)N1CCN2c3ccc(/C=C/c4c(Cl)cccc4C(F)(F)F)cc3N(S(=O)(=O)c3cccc(C(F)(F)F)c3)C[C@@H]2C1 [Example 52, tert-butyl (S,E)-2-(8-(2-chloro-6-(trifluoromethyl)styryl)-6-((3-(trifluoromethyl)phenyl)sul-fonyl)-1,2,4,4a,5,6-hexahydro-3H-pyrazino[1,2-a]quinoxalin-3-yl)-2-methylpropanoate] |
| ≤ 4.30 | – | 6.59 | 0.55 | C/C(=C\c1ccc2c(c1)N(S(=O)(=O)c1cccc(C(F)(F)F)c1)C[C@@H]1CN(C(C)(C)C(=O)OC(C)(C)C)CCN21)c1c(F)cccc1Cl [Example 53, tert-butyl (S,E)-2-(8-(2-(2-chloro-6-fluorophenyl)prop-1-en-1-yl)-6-((3-(trifluoromethyl)phe-nyl)sulfonyl)-1,2,4,4a,5,6-hexahydro-3H-pyrazino[1,2-a]qui-noxalin-3-yl)-2-methylpropanoate] |
| 6.29 | 2.7 | 7.33 | 0.78 | CC(C)(C(=O)O)N1CCN2c3ccc(/C=C/c4c(Cl)cccc4C(F)(F)F)cc3N(S(=O)(=O)c3cccc(C(F)(F)F)c3)C[C@@H]2C1 [Example 55, (S,E)-2-(8-(2-chloro-6-(trifluoro-methyl)styryl)-6-((3-(trifluoro-methyl)phenyl)sulfonyl)-1,2,4,4a,5,6-hexahydro-3H-pyrazino [1,2-a]quinoxalin-3-yl)-2-methylpropanoic acid] |
| 6.21 | 3.2 | 7.35 | 0.71 | C/C(=C\c1ccc2c(c1)N(S(=O)(=O)c1cccc(C(F)(F)F)c1)C[C@@H]1CN(C(C)(C)C(=O)O)CCN21)c1c(F)cccc1Cl [Example 56, (S,E)-2-(8-(2-(2-chloro-6-fluoro-phenyl)prop-1-en-1-yl)-6-((3-(trifluoromethyl)phenyl)sulfo-nyl)-1,2,4,4a,5,6-hexahydro-3H-pyrazino[1,2-a]quinoxalin-3-yl)-2-methylpropanoic acid] |
| 6.52 | 3.2 | 8.18 | 0.89 | CCOC(=O)C(=O)N1CCN2c3ccc(/C=C(\C)c4c(F)cccc4Cl)cc3N(S(=O)(=O)c3cccc(C(F)(F)F)c3)C[C@@H]2C1 [Example 57, ethyl (S,E)-2-(8-(2-(2-chloro-6-fluorophenyl)prop-1-en-1-yl)-6-((3-(trifluoromethyl)phenyl)sulfonyl)-1,2,4,4a,5,6-hexahydro-3H-pyrazino[1,2-a]quinoxalin-3-yl)-2-oxoacetate] |
| 6.53 | 3.8 | 7.60 | 0.69 | C/C(=C\c1ccc2c(c1)N(S(=O)(=O)c1cccc(C(F)(F)F)c1)C[C@@H]1CN(C(N)=O)CCN21)c1c(F)cccc1Cl [Example 62, (S,E)-8-(2-(2-chloro-6-fluoro-phenyl)prop-1-en-1-yl)-6-((3-(trifluoromethyl)phenyl)sulfo-nyl)-1,2,4,4a,5,6-hexahydro-3H-pyrazino[1,2-a]quinoxa-line-3-carboxamide] |
| 6.51 | 5.0 | 7.63 | 0.89 | C/C(=C\c1ccc2c(c1)N(S(=O)(=O)c1cccc(C(F)(F)F)c1)C[C@@H]1CN(C(N)=S)CCN21)c1c(F)cccc1Cl [Example 63, (S,E)-8-(2-(2-chloro-6-fluorophenyl)prop-1-en-1-yl)-6-((3-(trifluoromethyl)phenyl)sulfonyl)-1,2,4,4a,5,6-hexahydro-3H-pyrazino[1,2-a]quinoxaline-3-carbothioamide] |

Source: US20220009894A1, “1,2,3,4-TETRAHYDROQUINOXALINE DERIVATIVE, PREPARATION METHOD THEREFOR AND APPLICATION THEREOF” (Abbisko Therapeutics Co., Ltd., priority 2019, published 2022)
